Where two headings read alike, the source gives them in different places.
What was measured:
MCF-7 cells = assay: MTT cytotoxicity assay, MCF-7 cells; format: cell-based; details: Homo sapiens, MCF7, 72 h treatment, MCF-7 breast carcinoma cells
Method: (§1) The cell lines were cultured in DMEM or RPMI 1640 containing 10% fetal bovine serum at 37 °C in the presence of 5% CO2. The cell lines were the oral epidermoid carcinoma cell lines KB and its vincristine-selected ABCB1-overexpressing KBv200 [10]; the breast carcinoma cell lines MCF-7 and its doxorubicin-selected ABCB1-overexpressing MCF-7/adr; the lung carcinoma cell line A549 and normal liver cell line LO2.
(§2) The MTT assay was used to evaluate the cytotoxicity of a number of compounds previously isolated from mangrove-derived fungi as described. Briefly, 3–4 × 10^3 cells were incubated in 96-well plates and allowed to attach overnight before compounds at full range concentrations were added. The concentrations were chosen so that the highest concentration killed most of the cells and the lowest killed none of the cells. After 72 h treatment, 0.5 mg/ml MTT was added to each well for an additional 4 h. Subsequently, the supernatant was removed, and the purple MTT-formazan crystals were dissolved by DMSO. Finally, absorbance was recorded at 540 nm with 655 nm as a reference filter using a Model 550 Microplate Reader (Bio-Rad, USA). Experiments were performed at least three times. The standard chemotherapeutic agent doxorubicin was used as a positive control in MTT assay and normal liver cell line LO2 was used to show whether cytotoxic activity was tumor-specific. The concentrations required to inhibit growth by 50% (IC50) were calculated from survival curves using the Bliss method.

A549 cells = assay: MTT cytotoxicity assay, A549 cells; format: cell-based; details: Homo sapiens, 72 h treatment, A549 lung carcinoma cells
Method: as §1, §2

KBv200 cells = assay: MTT cytotoxicity assay, KBv200 cells; format: cell-based; details: Homo sapiens, 72 h treatment, vincristine-selected ABCB1-overexpressing KBv200 cells
Method: as §1, §2

[1] = tested on: KB, KBv200, MCF-7, MCF-7/adr, and A549 cells; assay: MTT anticancer screen, cancer cell panel; format: cell-based, human; details: for IC50 values in MDR cells compared with parental sensitive cells: KBv200, MCF-7/adr versus KB, MCF-7; for IC50: Homo sapiens, MTT
Method: as §1, §2

MCF-7/adr cells = assay: MTT cytotoxicity assay, MCF-7/adr cells; format: cell-based; details: Homo sapiens, NCI/ADR-RES, 72 h treatment, doxorubicin-selected ABCB1-overexpressing MCF-7/adr cells
Method: as §1, §2

normal liver LO2 cells = assay: MTT cytotoxicity assay, normal liver LO2 cells; format: cell-based; details: for IC50: Homo sapiens, L02, 72 h treatment, normal liver LO2 cells
Method: as §1, §2

pcDNA3.1(+) DNA = assay: DNA binding assay (agarose gel electrophoresis); details: 10, 100 or 200 μmol/L with 1 μg pcDNA3.1(+), 37 °C, 3 h; 1% agarose gel
Method: 10, 100 or 200 μmol/L compounds were incubated with 1 μg pcDNA3.1(+) at 37 °C for 3 h. The mixtures were then subjected to electrophoresis on a 1% agarose gel, pre-stained with 0.5 μg/ml ethidium bromide, at 60 V for 40 min. Doxorubicin (DOX) was used as a positive control.

KB cells = assay: MTT cytotoxicity assay, KB cells; format: cell-based; details: Homo sapiens, 72 h treatment, KB oral epidermoid carcinoma cells
Method: as §1, §2

[2] = cancer cells, cell lines not given, read-out: IC50 (cytotoxic activity)
[3] = KB, KBv200, MCF-7, MCF-7/adr, and A549 cells, read-out: IC50 values (potent cytotoxic activity)

SMILES | IC50 (MCF-7 cells) [µM] | IC50 (A549 cells) [µM] | IC50 (KBv200 cells) [µM] | IC50 values in MDR cells compared with parental sensitive cells [1] | IC50 (MCF-7/adr cells) [µM] | IC50 (normal liver LO2 cells) [µM] | DNA intercalation / binding to DNA (pcDNA3.1(+) DNA) | IC50 (KB cells) [µM] | IC50 [1, 2] [µM] | IC50 [1, 3] [µM] | cytotoxic / anticancer activity (in words) ([1]; MTT assay in vitro) | sensitivity of cancer cells compared with normal liver LO2 cells (normal liver LO2 cells; cancer cells versus LO2 cells)
COc1cccc2c1C(=O)c1c(O)c3c(c(O)c1C2=O)C[C@@](O)(C(=O)CO)C[C@@H]3O[C@H]1C[C@H](N)[C@H](O)[C@H](C)O1 [Doxorubicin, reference compound] | 0.39 ± 0.02 | 1.67 ± 0.09 | 3.21 ± 0.12 | much higher IC50 values | 22.3 ± 1.56 | 0.11 ± 0.01 | effectively intercalated into DNA in a concentration-dependent manner | 0.05 ± 0.003 |  |  |  | 
O=C1c2cccc(OCc3ccccc3)c2C(=O)c2c(OCc3ccccc3)cccc21 [Compound 16] | > 50 | > 50 | > 50 |  | > 50 | > 50 |  | > 50 |  |  |  | 
COc1cc(O)c2c(c1O)C(=O)C1CC(C)(O)C(O)CC1C2O (stereo not shown) [Compound 23] | > 50 | > 50 | > 50 |  | > 50 | > 50 |  | > 50 |  |  |  | 
Cc1cc(OCc2ccccc2)c2c(c1)C(=O)c1cccc(O)c1C2=O [Compound 15] | > 50 | > 50 | > 50 |  | > 50 | > 50 |  | > 50 |  |  |  | 
CC1OC(O[C@@H]2C(=O)c3c(O)cccc3OC2c2ccc(O)cc2)C(O)C(O)C1O (stereo partly shown) [Compound 79] | > 50 | > 50 | > 50 |  | > 50 | > 50 |  | > 50 | > 50 |  |  | 
C=C/C=C/COc1c(-c2ccc3c(c2OC/C=C/C=C)C(=O)C2=C(O)CC(C)C(O)C2(C(=O)OC)O3)ccc2c1C(=O)C1=C(O)CC(C)C(O)C1(C(=O)OC)O2 (stereo not shown) [Compound 10] | > 50 | > 50 | > 50 |  | > 50 | > 50 |  | > 50 |  |  |  | 
COc1cc(O)c2c(c1O)C(O)C1CC(C)(O)C(O)C(O)C1C2=O (stereo not shown) [Compound 20] | > 50 | > 50 | > 50 |  | > 50 | > 50 |  | > 50 |  |  |  | 
O=c1c2c(O)ccc(O)c2oc2c3c(cc(O)c12)OC1OCCC31 (stereo not shown) [Compound 7] | 0.17 ± 0.01 | 16.5 ± 0.88 | 9.08 ± 0.65 | much higher IC50 values | 31.6 ± 1.83 | 47.4 ± 2.04 |  | 0.03 ± 0.001 |  | < 50 |  | 
COc1c2c(cc3oc4cccc(O)c4c(=O)c13)C1C=COC1O2 (stereo not shown) [Compound 9] | 1.43 ± 0.09 | > 50 | 48 ± 3.41 | much higher IC50 values | 31.6 ± 1.36 | > 50 |  | 0.94 ± 0.01 |  | < 50 |  | 
Cc1ccc2c(c1)C(=O)c1ccc(-c3ccc4c(c3)C(=O)c3cc(C)cc(O)c3C4=O)c(O)c1C2=O [Compound 19] | > 50 | > 50 | > 50 |  | > 50 | > 50 |  | > 50 |  |  |  | 
COc1cc(O)c2c(c1O)C(O)C1CC3(C)OC3CC1C2=O (stereo not shown) [Compound 22] | > 50 | > 50 | > 50 |  | > 50 | > 50 |  | > 50 |  |  |  | 
Cc1c(CCl)cc([N+](=O)[O-])cc1CCl [Compound 3] | > 50 | > 50 | > 50 |  | > 50 | > 50 |  | > 50 |  |  |  | 
Cc1cccc(O)c1C(=O)O [Compound 5] | > 50 | > 50 | > 50 |  | > 50 | > 50 |  | > 50 |  |  |  | 
COc1cc(O)c2c(c1O)C(O)C1CC(C)(O)C(O)CC1C2=O (stereo not shown) [Compound 21] | > 50 | > 50 | > 50 |  | > 50 | > 50 |  | > 50 |  |  |  | 
O=C1c2ccc(O)cc2OCC1c1ccc(O)cc1 (stereo not shown) [Compound 78] | 19.8 ± 0.89 | 14.9 ± 0.64 | 9.37 ± 0.61 |  | 24.9 ± 1.15 | 33.6 ± 2.06 | none of the compounds investigated here showed binding to DNA | 8.63 ± 0.57 |  | < 50 | exhibited a cytotoxicity targeted to cancer cells | more sensitive
C#CCOc1cc(C)cc2c1C(=O)c1c(O)cccc1C2=O [Compound 14] | 35.2 ± 1.87 | 23.5 ± 1.32 | > 50 | much higher IC50 values | > 50 | 37.5 ± 1.64 | none of the compounds investigated here showed binding to DNA | 11.9 ± 0.69 |  | < 50 |  | 
CC(=O)/C=C/C=C/C=C/C(=O)CC(=O)O [Compound 84] | > 50 | > 50 | > 50 |  | > 50 | > 50 |  | > 50 |  |  |  | 
COC(=O)/C=C/C=C/C=C/C=C(C)/C=C/C=C(\C)C(=O)O [Compound 85] | > 50 | > 50 | > 50 |  | > 50 | > 50 |  | > 50 |  |  |  | 
CCCCC/C=C\CC(O)/C=C/C=C\C/C=C\CCCC(=O)OC (stereo not shown) [Compound 82] | > 50 | > 50 | > 50 |  | > 50 | > 50 |  | > 50 |  |  |  | 
Cc1ccc([N+](=O)[O-])cc1CO [Compound 2] | > 50 | > 50 | > 50 |  | > 50 | > 50 |  | > 50 |  |  |  | 
CCOC(=O)COc1cccc2c1C(=O)c1c(OCC(=O)OCC)cc(C)cc1C2=O [Compound 12] | > 50 | > 50 | > 50 |  | > 50 | > 50 |  | > 50 |  |  |  | 
C/C=C/C(=O)c1cc(O)c(O)cc1O [Compound 6] | > 50 | > 50 | > 50 |  | > 50 | > 50 |  | > 50 |  |  |  | 
COc1cc(O)c2c(c1O)C(=O)C1CC3(C)OC3CC1C2O (stereo not shown) [Compound 25] | > 50 | > 50 | > 50 |  | > 50 | > 50 |  | > 50 |  |  |  | 
COc1cc(OC)c2c(c1)C(=O)c1cc3c(c(O)c1C2=O)C1CCOC1O3 (stereo not shown) [Compound 17] | > 50 | > 50 | > 50 |  | > 50 | > 50 |  | > 50 |  |  |  | 
CC1OC(O[C@H]2C(=O)c3c(O)cccc3OC2c2ccc(O)cc2)C(O)C(O)C1O (stereo partly shown) [Compound 80] | > 50 | > 50 | > 50 |  | > 50 | > 50 |  | > 50 | > 50 |  |  | 
COc1cc(O)c2c(c1O)C(=O)C1CC(C)(O)C(O)C(O)C1C2O (stereo not shown) [Compound 24] | > 50 | > 50 | > 50 |  | > 50 | > 50 |  | > 50 |  |  |  | 
O=c1c2ccccc2oc2c3c(cc(O)c12)OC1OCCC31 (stereo not shown) [Compound 8] | 2.53 ± 0.14 | > 50 | 17.2 ± 0.96 |  | 9.37 ± 0.42 | > 50 |  | 0.71 ± 0.03 |  | < 50 |  | 

— PMC2866477, “Anticancer Effect and Structure-Activity Analysis of Marine Products Isolated from Metabolites of Mangrove Fungi in the South China Sea” (Marine Drugs, 2010)
